Data taken from the CheMixHub viscosity set.

Assay: xn = mol fraction of the nth substance listed
Details: 101.33 kPa

COCCOCCOC + COC(=O)OC
viscosity [mPa·s]
Details | 298.15 K | 308.15 K | 318.15 K
x1 = 0.0428 | 0.608 | 0.536 | 0.485
x1 = 0.0832 | 0.626 | 0.55 | 0.496
x1 = 0.149 | 0.66 | 0.576 | 0.516
x1 = 0.2102 | 0.693 | 0.6 | 0.536
x1 = 0.2752 | 0.723 | 0.626 | 0.556
x1 = 0.3253 | 0.752 | 0.647 | 0.571
x1 = 0.3937 | 0.784 | 0.674 | 0.592
x1 = 0.4775 | 0.818 | 0.701 | 0.615
x1 = 0.5765 | 0.855 | 0.733 | 0.641
x1 = 0.6623 | 0.884 | 0.758 | 0.661
x1 = 0.7219 | 0.903 | 0.774 | 0.675
x1 = 0.8014 | 0.93 | 0.792 | 0.691
x1 = 0.8649 | 0.949 | 0.807 | 0.702
x1 = 0.8944 | 0.958 | 0.813 | 0.708
x1 = 0.9047 | 0.961 | 0.816 | 0.71
x1 = 0.9232 | 0.966 | 0.821 | 0.713
x1 = 0.9316 | 0.969 | 0.823 | 0.714
x1 = 0.9372 | 0.97 | 0.823 | 0.715
x1 = 0.9528 | 0.975 | 0.826 | 0.718

COCCOCCOC + COC(=O)c1ccccc1
viscosity [mPa·s]
Details | x1 = 0.1017 | x1 = 0.1985 | x1 = 0.3026 | x1 = 0.3989 | x1 = 0.4978 | x1 = 0.599 | x1 = 0.6958 | x1 = 0.7991 | x1 = 0.8979
298.15 K | 1.707 | 1.622 | 1.532 | 1.448 | 1.367 | 1.286 | 1.209 | 1.129 | 1.055
303.15 K | 1.542 | 1.467 | 1.389 | 1.317 | 1.245 | 1.173 | 1.105 | 1.036 | 0.971
308.15 K | 1.401 | 1.334 | 1.264 | 1.2 | 1.137 | 1.073 | 1.014 | 0.953 | 0.894
313.15 K | 1.279 | 1.218 | 1.155 | 1.1 | 1.044 | 0.987 | 0.934 | 0.879 | 0.828
318.15 K | 1.169 | 1.116 | 1.061 | 1.012 | 0.962 | 0.911 | 0.862 | 0.814 | 0.768
